pIC50: −log10 of the molar value.
Columns and labels:
Kv1.5 = target: T1, Kv1.5 (Homo sapiens, UniProt P22460); experiment: Patch-clamp inhibition of cloned ion channel current in transfected HEK cells: Kv1.5; assay type: cell-based; conditions: steady-state current, -80 mV to +60 mV
T1 construct: expressed in transfected cells; host or cells: HEK cells, transient transfection, vector pCDNA3
Summary of the method: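 Whole-cell patch clamp at 22–23 °C on transiently transfected HEK cells, compound 0.5–100 μM, pulses every 4 s. Na+: peak current, −100 mV holding, −30 mV for 10 ms; Kv1.5 (steady-state) and Kv4.2 (integrated): −80 mV holding, +60 mV for 200 ms. IC50 by Hill fit, 4–6 cells.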

Sprague Dawley rats = experiment: Cardiovascular and behavioral effects: ECG changes during i.v. infusion in conscious rats; assay type: in vivo, rat
Description: Preparative surgery is performed in Sprague Dawley rats weighing 200–300 gm and anaesthetized with 65 mg/kg (i.p.) pentobarbital. The femoral artery and vein are cannulated using polyethylene (PE)-10 tubing. Prior to surgery, this PE-10 tubing had been annealed to a wider gauge (PE-50) tubing for externalization. The cannulated PE-10/PE-50 tubing is passed through a trocar and exteriorised together with three (lead II) limb ECG leads (see below). The trocar is threaded under the skin of the back and out through a small incision at the mid-scapular region. A ground ECG electrode is inserted subcutaneously using a 20 gauge needle with the lead wire threaded through it. To place the other ECG electrodes, a small incision is made in the anterior chest region over the heart and ECG leads are inserted into the subcutaneous muscle layer in the region of the heart using a 20 guage needle. Other ECG leads are inserted into the subcutaneous muscle layer in the region near the base of the neck and shoulder (right side). The animal is returned to a clean recovery-cage with free access to food and water. The treatment and observational period for each animal commenced after a 24-hour recovery period.
A 15 min observational period is recorded followed by the intravenous infusion regime of the test compound at an initial dose of 2.0 μmol/kg/min (at 1 ml/hr). This rate is doubled every 5 minutes until one of the following effects is observed:
Blood pressure (BP), heart rate (HR) and ECG variables are continuously recorded while behavioral responses are also monitored and the total accumulative drug dose and drug infusion rate at which the response (such as convulsion, piloerection, ataxia, restlessness, compulsive chewing, lip-smacking, wet dog shake etc.) occurred are recorded.
Electrocardiograph (ECG) parameters: PR, QRS, QT1 (peak of T-wave), QT2 (midpoint of T-wave deflection) and hemodynamic parameters: BP and HR are analyzed using the automated analysis function in LabView (National Instruments) with a customized autoanalysis software (Nortran Pharmaceuticals). The infused dose producing 25% from control (D25) for all recorded ECG variables is determined.
Table 2 describes the results of the tests as D25 (micromol/kg) which are the doses required to produce a 25% increase in the ECG parameter measured (ne=not estimated). The increases in P-R interval and QRS interval indicate cardiac sodium channel blockade while the increase in Q-T interval indicates cardiac potassium channel blockade.

T1 sequence (P22460 whole entry): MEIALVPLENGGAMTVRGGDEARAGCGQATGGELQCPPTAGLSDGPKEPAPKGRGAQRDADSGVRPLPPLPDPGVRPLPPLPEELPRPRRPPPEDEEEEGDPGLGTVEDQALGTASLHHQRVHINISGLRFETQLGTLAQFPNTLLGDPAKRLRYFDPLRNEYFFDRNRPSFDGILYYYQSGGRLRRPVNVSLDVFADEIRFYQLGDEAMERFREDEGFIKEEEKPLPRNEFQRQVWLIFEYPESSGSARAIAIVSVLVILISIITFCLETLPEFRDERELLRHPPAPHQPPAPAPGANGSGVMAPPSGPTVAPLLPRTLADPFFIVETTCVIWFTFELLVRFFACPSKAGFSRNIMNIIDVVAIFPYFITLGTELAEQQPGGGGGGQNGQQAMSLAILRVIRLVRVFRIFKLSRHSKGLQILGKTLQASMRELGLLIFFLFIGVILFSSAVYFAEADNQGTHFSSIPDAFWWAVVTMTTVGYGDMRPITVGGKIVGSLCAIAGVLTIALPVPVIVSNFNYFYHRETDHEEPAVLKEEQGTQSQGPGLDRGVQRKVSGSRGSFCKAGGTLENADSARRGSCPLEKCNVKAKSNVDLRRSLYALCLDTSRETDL

SMILES: COc1ccc(CCCOc2cccn3cc(C)nc23)cc1OC [Compound 3, 8-[3-(3,4-DIMETHOXYPHENYL)PROPOXY]-2-METHYLIMIDAZO[1,2-α]PYRIDINE MONOHYDROCHLORDE]
- pIC50 (Kv1.5): 5.22
- D25 QT (dose required to produce a 25% increase in Q-T interval) (Sprague Dawley rats; indicates cardiac potassium channel blockade): 16 µmol/kg
- D25 PR (dose required to produce a 25% increase in P-R interval) (Sprague Dawley rats; indicates cardiac sodium channel blockade): 21 µmol/kg
